Experimental data published in PubChem BioAssay (NCI).
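GI50 marks 50% less growth. TGI denotes the concentration required for complete inhibition of growth.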

Legend:
Test in all cases: NCI anticancer screen, dose series, 384-well format
BT-549 breast = tested on: BT-549 breast
NCI-H322M lung = tested on: NCI-H322M lung
MCF7 breast = tested on: MCF7 breast
RXF 393 renal = tested on: RXF 393 renal
A498 renal = tested on: A498 renal
A549 NSCLC = tested on: A549 NSCLC
CAKI-1 renal = tested on: CAKI-1 renal
OVCAR-4 ovarian = tested on: OVCAR-4 ovarian
SNB-75 CNS = tested on: SNB-75 CNS
UACC-257 melanoma = tested on: UACC-257 melanoma
DU-145 prostate = tested on: DU-145 prostate
HS 578T breast = tested on: HS 578T breast
OVCAR-5 ovarian = tested on: OVCAR-5 ovarian
NCI-H460 NSCLC = tested on: NCI-H460 NSCLC
NCI-H226 lung = tested on: NCI-H226 lung
OVCAR-8 ovarian = tested on: OVCAR-8 ovarian
OVCAR-3 ovarian = tested on: OVCAR-3 ovarian
UACC-62 melanoma = tested on: UACC-62 melanoma
786-0 renal = tested on: 786-0 renal
SF-268 CNS = tested on: SF-268 CNS
SF-539 CNS = tested on: SF-539 CNS
SN12C renal = tested on: SN12C renal
IGROV1 ovarian = tested on: IGROV1 ovarian
RPMI-8226 leukemia = tested on: RPMI-8226 leukemia
U251 glioblastoma = tested on: U251 glioblastoma
K-562 leukemia = tested on: K-562 leukemia
MOLT-4 leukemia = tested on: MOLT-4 leukemia
NCI-H23 lung = tested on: NCI-H23 lung
SK-MEL-5 melanoma = tested on: SK-MEL-5 melanoma
HCT-15 colon = tested on: HCT-15 colon
KM12 colon = tested on: KM12 colon
CCRF-CEM leukemia = tested on: CCRF-CEM leukemia
SF-295 CNS = tested on: SF-295 CNS
PC-3 prostate = tested on: PC-3 prostate
NCI/ADR-RES ovarian = tested on: NCI/ADR-RES ovarian
SNB-19 CNS = tested on: SNB-19 CNS
COLO 205 colon = tested on: COLO 205 colon
T-47D breast = tested on: T-47D breast
UO-31 renal = tested on: UO-31 renal
HCT-116 colon = tested on: HCT-116 colon
LOX IMVI melanoma = tested on: LOX IMVI melanoma
HL-60(TB) leukemia = tested on: HL-60(TB) leukemia
HOP-62 NSCLC = tested on: HOP-62 NSCLC
HT29 colon = tested on: HT29 colon
EKVX NSCLC = tested on: EKVX NSCLC
SK-MEL-28 melanoma = tested on: SK-MEL-28 melanoma
ACHN renal = tested on: ACHN renal

Structure (SMILES): CC(C)n1cc(-c2ccc3c(c2)N(C)CC3)c2c(NS(=O)(=O)c3ccn(C)n3)ccnc21
- GI50 (BT-549 breast): > 100 µM
- TGI (BT-549 breast): > 100 µM
- GI50 (NCI-H322M lung): > 100 µM
- TGI (NCI-H322M lung): > 100 µM
- GI50 (MCF7 breast): 56.3 µM
- TGI (MCF7 breast): > 100 µM
- GI50 (RXF 393 renal): 51.2 µM
- TGI (RXF 393 renal): > 100 µM
- GI50 (A498 renal): 85.7 µM
- TGI (A498 renal): > 100 µM
- GI50 (A549 NSCLC): 47.1 µM
- TGI (A549 NSCLC): > 100 µM
- GI50 (CAKI-1 renal): > 100 µM
- TGI (CAKI-1 renal): > 100 µM
- GI50 (OVCAR-4 ovarian): 59.8 µM
- TGI (OVCAR-4 ovarian): > 100 µM
- GI50 (SNB-75 CNS): > 88.1 µM
- TGI (SNB-75 CNS): > 100 µM
- GI50 (UACC-257 melanoma): > 100 µM
- TGI (UACC-257 melanoma): > 100 µM
- GI50 (DU-145 prostate): > 70.7 µM
- TGI (DU-145 prostate): > 100 µM
- GI50 (HS 578T breast): 69.3 µM
- TGI (HS 578T breast): > 100 µM
- GI50 (OVCAR-5 ovarian): > 100 µM
- TGI (OVCAR-5 ovarian): > 100 µM
- GI50 (NCI-H460 NSCLC): > 85.7 µM
- TGI (NCI-H460 NSCLC): > 100 µM
- GI50 (NCI-H226 lung): > 96.1 µM
- TGI (NCI-H226 lung): > 100 µM
- GI50 (OVCAR-8 ovarian): > 70.4 µM
- TGI (OVCAR-8 ovarian): > 100 µM
- GI50 (OVCAR-3 ovarian): 40.5 µM
- TGI (OVCAR-3 ovarian): > 87.6 µM
- GI50 (UACC-62 melanoma): 63.4 µM
- TGI (UACC-62 melanoma): > 100 µM
- GI50 ([…]-0 renal): > 100 µM
- TGI (786-0 renal): > 100 µM
- GI50 (SF-268 CNS): > 100 µM
- TGI (SF-268 CNS): > 100 µM
- GI50 (SF-539 CNS): > 100 µM
- TGI (SF-539 CNS): > 100 µM
- GI50 (SN12C renal): > 100 µM
- TGI (SN12C renal): > 100 µM
- GI50 (IGROV1 ovarian): > 74.4 µM
- TGI (IGROV1 ovarian): > 100 µM
- GI50 (RPMI-8226 leukemia): 21.8 µM
- TGI (RPMI-8226 leukemia): 52.9 µM
- GI50 (U251 glioblastoma): 87.1 µM
- TGI (U251 glioblastoma): > 100 µM
- GI50 (K-562 leukemia): 53.2 µM
- TGI (K-562 leukemia): > 100 µM
- GI50 (MOLT-4 leukemia): 39.1 µM
- TGI (MOLT-4 leukemia): > 100 µM
- GI50 (NCI-H23 lung): > 70 µM
- TGI (NCI-H23 lung): > 100 µM
- GI50 (SK-MEL-5 melanoma): > 100 µM
- TGI (SK-MEL-5 melanoma): > 100 µM
- GI50 (HCT-15 colon): 90.6 µM
- TGI (HCT-15 colon): > 100 µM
- GI50 (KM12 colon): 78 µM
- TGI (KM12 colon): > 100 µM
- GI50 (CCRF-CEM leukemia): 45.3 µM
- TGI (CCRF-CEM leukemia): > 100 µM
- GI50 (SF-295 CNS): 37 µM
- TGI (SF-295 CNS): > 91.2 µM
- GI50 (PC-3 prostate): 66.7 µM
- TGI (PC-3 prostate): > 100 µM
- GI50 (NCI/ADR-RES ovarian): 61.2 µM
- TGI (NCI/ADR-RES ovarian): > 100 µM
- GI50 (SNB-19 CNS): > 100 µM
- TGI (SNB-19 CNS): > 100 µM
- GI50 (COLO 205 colon): > 78.9 µM
- TGI (COLO 205 colon): > 100 µM
- GI50 (T-47D breast): 50.9 µM
- TGI (T-47D breast): > 100 µM
- GI50 (UO-31 renal): 78.6 µM
- TGI (UO-31 renal): > 100 µM
- GI50 (HCT-116 colon): > 100 µM
- TGI (HCT-116 colon): > 100 µM
- GI50 (LOX IMVI melanoma): 65.8 µM
- TGI (LOX IMVI melanoma): > 100 µM
- GI50 (HL-60(TB) leukemia): 33.1 µM
- TGI (HL-60(TB) leukemia): > 61.4 µM
- GI50 (HOP-62 NSCLC): > 78.1 µM
- TGI (HOP-62 NSCLC): > 100 µM
- GI50 (HT29 colon): > 77.2 µM
- TGI (HT29 colon): > 100 µM
- GI50 (EKVX NSCLC): 75.6 µM
- TGI (EKVX NSCLC): > 100 µM
- GI50 (SK-MEL-28 melanoma): > 93.5 µM
- TGI (SK-MEL-28 melanoma): > 100 µM
- GI50 (ACHN renal): > 100 µM
- TGI (ACHN renal): > 100 µM

Structure (SMILES): Cc1nc2ccc(-n3ncc(C(=O)c4cc5ccccc5[nH]4)c3N)cc2[nH]1
- GI50 (BT-549 breast): 5.72 µM
- TGI (BT-549 breast): 20.7 µM
- GI50 (NCI-H322M lung): 16.4 µM
- TGI (NCI-H322M lung): 38.9 µM
- GI50 (MCF7 breast): 6.62 µM
- TGI (MCF7 breast): 24.8 µM
- GI50 (RXF 393 renal): 2.37 µM
- TGI (RXF 393 renal): 10.5 µM
- GI50 (A498 renal): 12.4 µM
- TGI (A498 renal): 33.5 µM
- GI50 (A549 NSCLC): 9.61 µM
- TGI (A549 NSCLC): 56.8 µM
- GI50 (CAKI-1 renal): 6.43 µM
- TGI (CAKI-1 renal): 39.8 µM
- GI50 (OVCAR-4 ovarian): 10.4 µM
- TGI (OVCAR-4 ovarian): 40.2 µM
- GI50 (SNB-75 CNS): 2.34 µM
- TGI (SNB-75 CNS): 19.8 µM
- GI50 (UACC-257 melanoma): 15.1 µM
- TGI (UACC-257 melanoma): 32.6 µM
- GI50 (DU-145 prostate): 12.7 µM
- TGI (DU-145 prostate): 41.7 µM
- GI50 (HS 578T breast): 6.48 µM
- TGI (HS 578T breast): 26 µM
- GI50 (OVCAR-5 ovarian): 8.84 µM
- TGI (OVCAR-5 ovarian): > 82.6 µM
- GI50 (NCI-H460 NSCLC): 2.37 µM
- TGI (NCI-H460 NSCLC): 9.74 µM
- GI50 (NCI-H226 lung): 5.45 µM
- TGI (NCI-H226 lung): 29.5 µM
- GI50 (OVCAR-8 ovarian): 6.08 µM
- TGI (OVCAR-8 ovarian): 18.8 µM
- GI50 (OVCAR-3 ovarian): 10.7 µM
- TGI (OVCAR-3 ovarian): 26 µM
- GI50 (UACC-62 melanoma): 5.92 µM
- TGI (UACC-62 melanoma): 18.6 µM
- GI50 ([…]-0 renal): 8.85 µM
- TGI (786-0 renal): 26.7 µM
- GI50 (SF-268 CNS): 10.6 µM
- TGI (SF-268 CNS): 55.9 µM
- GI50 (SF-539 CNS): 2.13 µM
- TGI (SF-539 CNS): 10.5 µM
- GI50 (SN12C renal): 6.46 µM
- TGI (SN12C renal): 45.9 µM
- GI50 (IGROV1 ovarian): 6 µM
- TGI (IGROV1 ovarian): 22.8 µM
- GI50 (RPMI-8226 leukemia): 6.35 µM
- TGI (RPMI-8226 leukemia): 17.3 µM
- GI50 (U251 glioblastoma): 6.53 µM
- TGI (U251 glioblastoma): 25.5 µM
- GI50 (K-562 leukemia): 3.95 µM
- TGI (K-562 leukemia): 14.3 µM
- GI50 (MOLT-4 leukemia): 1.93 µM
- TGI (MOLT-4 leukemia): 5 µM
- GI50 (NCI-H23 lung): 17.5 µM
- TGI (NCI-H23 lung): 36.4 µM
- GI50 (SK-MEL-5 melanoma): 4.2 µM
- TGI (SK-MEL-5 melanoma): 17.4 µM
- GI50 (HCT-15 colon): 1.56 µM
- TGI (HCT-15 colon): 13.4 µM
- GI50 (KM12 colon): 3.3 µM
- TGI (KM12 colon): 12.3 µM
- GI50 (CCRF-CEM leukemia): 5.85 µM
- TGI (CCRF-CEM leukemia): 18.7 µM
- GI50 (SF-295 CNS): 10.4 µM
- TGI (SF-295 CNS): 26.9 µM
- GI50 (PC-3 prostate): 7.51 µM
- TGI (PC-3 prostate): 26.6 µM
- GI50 (NCI/ADR-RES ovarian): 8.76 µM
- TGI (NCI/ADR-RES ovarian): 23.8 µM
- GI50 (SNB-19 CNS): 16 µM
- TGI (SNB-19 CNS): > 66.7 µM
- GI50 (COLO 205 colon): 5.86 µM
- TGI (COLO 205 colon): 30.2 µM
- GI50 (T-47D breast): 6.8 µM
- TGI (T-47D breast): 19.3 µM
- GI50 (UO-31 renal): 7.35 µM
- TGI (UO-31 renal): 34.5 µM
- GI50 (HCT-116 colon): 3.78 µM
- TGI (HCT-116 colon): 16.1 µM
- GI50 (LOX IMVI melanoma): 3.27 µM
- TGI (LOX IMVI melanoma): 8.34 µM
- GI50 (HL-60(TB) leukemia): 2.97 µM
- TGI (HL-60(TB) leukemia): 12.3 µM
- GI50 (HOP-62 NSCLC): 12.2 µM
- TGI (HOP-62 NSCLC): 29.6 µM
- GI50 (HT29 colon): 5.55 µM
- TGI (HT29 colon): 20.5 µM
- GI50 (EKVX NSCLC): 15.3 µM
- TGI (EKVX NSCLC): 41.1 µM
- GI50 (SK-MEL-28 melanoma): 19.5 µM
- TGI (SK-MEL-28 melanoma): 58.3 µM
- GI50 (ACHN renal): 8.92 µM
- TGI (ACHN renal): 48.5 µM
